Source: paper PMC6680430, “Quantitative Prediction of Human Pharmacokinetics and Pharmacodynamics of CKD519, a Potent Inhibitor of Cholesteryl Ester Transfer Protein (CETP)” (Pharmaceutics, 2019)
Values after ≈ are worked out from the molar mass of the structure shown.

What was measured:
[1] = human PK parameter prediction by allometric scaling; conditions: 60 kg human
From the text: The volume parameters (Vc, Vp) estimated from the PK models for three different species were correlated through simple allometric scaling (=Body weight-dependent allometry) in the PK model fitted to the overall data from all species. This method is based on the power–law function, which can be represented as follows:Y = a × BW^b,(2) where Y represents the PK parameter of interest from each animal; BW represents the average body weight of each species from the relevant in vivo studies; and a and b are the allometric coefficient and exponent of the equation, respectively.
For the allometric scaling of the clearance parameters (CL, Q) in the same model, physiological parameters such as brain weight (BrW) or maximum lifespan potential (MLP) of each species were incorporated if necessary. To address the uncertainty, two allometric relationships were selected as the final models, and two sets of human PK parameters were predicted: one from the allometry of best fit and the other from the most conventional simple allometry. The appropriateness of the extrapolated human PK parameter values was assessed by comparing them with those of the comparator. Since allometric scaling is not generally recommended for the absorption parameter, human absorption parameters were determined by the final estimates from the overall PK model instead of the allometric method.
As mentioned in Section 2.4, predicted human (with the body weight of 60 kg) PK parameter values were obtained using the simple and BrW-corrected (the best fit) allometric relationships and the final estimates for allometric coefficient and exponent in overall PK models.

CETP = test: human PK/PD modeling and simulation of CETP inhibition
Protocol: The efficacious dose was defined as the dose accomplishing the threshold in ≥50% of the population, which was determined using the median. Thus, the variability of the parameters was not incorporated in the simulation.

[2] = animal full PK study in hamsters (NCA and PK model); type: in vivo; conditions: hamster; for Tmax: median (range)
Protocol: Animal PK data for analysis were collected from preclinical studies performed at ChongKunDang laboratory. All animal experiments were performed with relevant guidelines and regulations, and the protocol was approved by the Institutional Animal Care and Use Committee (IACUC) of ChongKunDang (Approval number: S-13-015). A single dose of CKD519 was administered either orally or via intravenous infusion to hamsters (intravenous dose of 0.5 mg/kg, oral dose of 3, 15, or 45 mg/kg, n = 30); rats (intravenous dose of 0.5 mg/kg, oral dose of 5, 15, or 45 mg/kg, n = 20); and monkeys (intravenous dose of 0.1 mg/kg, oral dose of 1, 5, or 30 mg/kg, n = 16). The identical solution was administered to all animal species in the fasted state. Plasma CKD519 concentration was measured before and at 0.083, 0.25, 0.5, 1, 2, 4, 8, and 24 h after administration in hamsters and rats, and before and at 0.083, 0.25, 0.5, 1, 2, 4, 6, 8, 12, 24, 48, and 72 h after administration in monkeys. Two hamsters given identical doses were sampled in a rotating manner.
The plasma samples were stored at −70 °C before the analysis and were thawed at room temperature. […] A sensitive, specific, and validated liquid chromatography coupled with a tandem mass spectrometer (HPLC-MS/MS) assay was used for the determination of CKD519 concentration in animal plasma samples. A structural analogue of CKD519 was used as the internal standard. The validated working range was from 2 ng/mL (the lower limit of quantification, LLOQ) to 20,000 ng/mL. Quality control (QC) samples were analyzed together with the study samples. Intra-day and inter-day precision and accuracy results were within the acceptance criteria based on the Ministry of Food and Drug Safety (MFDS) guidelines. An exploratory data analysis was performed through non-compartmental analysis (NCA) using the NonCompart package (developed by Bae, version 0.4.4) in R (version 3.5.1, The R Foundation, Vienna, Austria).
Using the PK data from each species, nonlinear mixed-effect modeling was conducted using NONMEM (version 7.4, Icon Development Solutions, Ellicott City, MD, USA) reflecting the clues from NCA. The first-order conditional estimation method with interaction (FOCE-I) was used whenever applicable. The adequacy of the model was checked using changes in the objective function value (OFV), visual inspection of various diagnostic plots (goodness-of-fit (GOF) plot), and methods of visual predictive check (VPC) and bootstrap were used for the diagnostics on the model stability and parameter reliability. The significance of model improvement was evaluated using a likelihood-ratio test (LRT). In the nested models, the result was considered statistically significant if the OFV decreased more than 3.84 (p-value < 0.05, degree of freedom (df) = 1) and 5.99 (p-value < 0.05, df = 2). The degree of freedom is defined as the gap of the numbers of parameters of the two subsequent models that are being compared. In the case of non-nested models, the Akaike information criteria (AIC) value was used to select the model that best described the data. R (version 3.5.1., R Foundation for Statistical Computing, Vienna, Austria) was used for data preparation, NCA, graphical analysis, model diagnostics, and statistical summaries.
Initially, a two-compartment model with first-order absorption was developed to describe the biphasic curve, and several absorption structures (e.g., zero-order with absorption lag time, Weibull-type absorption) were applied to the base model if needed. The change in absolute bioavailability (F) by dose levels was also considered. […]

[3] = brain weight-corrected allometry
[4] = PK model, final estimate (%RSE)
[5] = intravenous 0.5 mg/kg, NCA, mean ± SD
[6] = two-compartment PK model, final estimate (%RSE)

CL, predicted human [1, 3]: 0.777 L/h
F 50, predicted human [1, 3]: 10.6
F max, predicted human [1, 3]: 0.192
Q, predicted human [1, 3]: 2.39 L/h
Vc, predicted human [1, 3]: 4.41 L
Vp, predicted human [1, 3]: 48.8 L
α, predicted human [1, 3]: 4.51
β, predicted human [1, 3]: 3.11
CL, predicted human ([1]; simple allometry): 0.264 L/h
F 50, predicted human ([1]; simple allometry): 10.6
F max, predicted human ([1]; simple allometry): 0.192
Q, predicted human ([1]; simple allometry): 1.17 L/h
Vc, predicted human ([1]; simple allometry): 3.29 L
Vp, predicted human ([1]; simple allometry): 49.7 L
α, predicted human ([1]; simple allometry): 4.51
β, predicted human ([1]; simple allometry): 3.11
IC50 (CETP; comparator in vivo IC50 22 nM scaled by in vitro potency ratio, read-out: assumed in vivo IC50): 37 nM
IC50 reflected in the PD model (CETP; corresponds to 22 nM (reported PD parameter of comparator scenario)): 0.01322 µg/mL (≈ 0.022 µM)
IC50 reflected in the PD model (CETP; corresponds to 37 nM (in vitro potency ratio scenario)): 0.02224 µg/mL
α (scale parameter of Weibull absorption) [2, 4]: 4.20 (4.14%)
β (shape parameter of Weibull absorption) [2, 4]: 2.62 (4.47%)
AUClast [2, 5]: 8760 ± 635 ng·h/mL
V/F * (V for intravenous) [2, 5]: 138 ± 89.9 mL
ke [2, 5]: 0.0616 ± 0.0446 h⁻¹
t1/2 [2, 5]: 16.9 ± 14.1 h
Tmax ([2]; intravenous 0.5 mg/kg, NCA): 0.083 (0.083–0.083) h
AUClast ([2]; oral 3 mg/kg, NCA, mean ± SD): 6140 ± 471 ng·h/mL
CL/F ([2]; oral 3 mg/kg, NCA, mean ± SD): 34.7 ± 3.08 mL/h
Cmax ([2]; oral 3 mg/kg, NCA, mean ± SD): 659 ± 89.3 ng/mL
V/F ([2]; oral 3 mg/kg, NCA, mean ± SD): 1570 ± 163 mL
ke ([2]; oral 3 mg/kg, NCA, mean ± SD): 0.0223 ± 0.00294 h⁻¹
t1/2 ([2]; oral 3 mg/kg, NCA, mean ± SD): 31.5 ± 4.41 h
Tmax ([2]; oral 3 mg/kg, NCA): 3.5 (3–4) h
AUClast ([2]; oral 15 mg/kg, NCA, mean ± SD): 18800 ± 4310 ng·h/mL
CL/F ([2]; oral 15 mg/kg, NCA, mean ± SD): 66.6 ± 20.1 mL/h
Cmax ([2]; oral 15 mg/kg, NCA, mean ± SD): 3250 ± 465 ng/mL
V/F ([2]; oral 15 mg/kg, NCA, mean ± SD): 2460 ± 162 mL
ke ([2]; oral 15 mg/kg, NCA, mean ± SD): 0.0268 ± 0.00613 h⁻¹
t1/2 ([2]; oral 15 mg/kg, NCA, mean ± SD): 26.8 ± 5.23 h
Tmax ([2]; oral 15 mg/kg, NCA): 4 (3–4) h
AUClast ([2]; oral 45 mg/kg, NCA, mean ± SD): 26700 ± 2330 ng·h/mL
CL/F ([2]; oral 45 mg/kg, NCA, mean ± SD): 145 ± 9.52 mL/h
Cmax ([2]; oral 45 mg/kg, NCA, mean ± SD): 3160 ± 614 ng/mL
V/F ([2]; oral 45 mg/kg, NCA, mean ± SD): 4330 ± 572 mL
ke ([2]; oral 45 mg/kg, NCA, mean ± SD): 0.0338 ± 0.00311 h⁻¹
t1/2 ([2]; oral 45 mg/kg, NCA, mean ± SD): 20.7 ± 1.76 h
Tmax ([2]; oral 45 mg/kg, NCA): 4 (3–6) h
CL [2, 6]: 0.00377 (7.40%) L/h
Q [2, 6]: 0.00617 (10.3%) L/h
Vc [2, 6]: 0.00472 (9.43%) L
Vp [2, 6]: 0.0924 (9.78%) L
Compound: COc1cc(F)c(C(C)C)cc1C1=C(CN2C(=O)O[C@H](c3cc(C(F)(F)F)cc(C(F)(F)F)c3)[C@@H]2C)CC(C)(C)CC1 [CKD519]
